These results are taken from patent US20070249822A1, “Photolabile Coumarinylmethyl Esters of Cyclic Nucleotides, Methods for their Preparation and Their Use” (Forschungsverbund Berlin E.V., priority 2000, published 2007).

For data set [1] the following is noted: cited from earlier work.
Data set [2] deals with olfactory cGMP-dependent cation channel. In words: Activation of the olfactory cGMP-dependent cation channel upon photolysis of caged cGMP. It is filed as cell-based. As to conditions: for activation of the olfactory cGMP-dependent cation channel upon photolysis: HEPES buffer. The text has this: The new photolabile cGMP and cAMP esters can be used successfully in the investigation of cyclic nucleotide-controlled processes.

The conditions of data set [3]: cited from earlier work. This is another data set of the same source.
For data set [4], the system named is cyclic nucleotide-dependent ion channel CNCα3 (from olfactory cells). In words: Whole cell measurements on HEK293 cells: activation of CNCα3 by photolytic liberation of cAMP. Format: cell-based. Conditions: axial form, 500 μM intracellular solution, UV flashes 10 to 200 ms; versus 200 μM DMN-caged cGMP on CNCα2, equal exposures. The text has this:
Activation of Cyclic Nucleotide-Dependent Ion Channels by Photolytic Liberation of Cyclic Nucleotides from the Corresponding Caged Compounds
Using whole cell measurements on HEK293 cells, the activation of the cyclic nucleotide-dependent ion channel CNCα3 (from olfactory cells) by photolytic liberation of cAMP from the axial form of the compound of Example 1 ([…]) and of the cyclic nucleotide-dependent ion channel CNCα2 (from rod photoreceptors) by photolytic liberation of cGMP from the axial form of 4,5-dimethoxy-2-nitrobenzyl ester of cGMP [DMN-caged cGMP, produced according to J. M. Nerbonne, S. Richard, J. Nargeot, H. A. Lester, Nature 310, 74 (1984)] was investigated comparatively by electrophysiological means.

Data set [5] in a line: Solubility of coumarinylmethyl-caged cyclic nucleotides in acetonitrile/HEPES buffer (saturation concentration by HPLC). Conditions: acetonitrile/HEPES buffer (5:95), pH 7.2, room temperature. It is filed as physicochemical. As for the experimental part:
Comparison of the Solubilities of Miscellaneous coumarinyl-methyl-caged Cyclic Nucleotides in Acetonitrile/HEPES Buffer (5:95) at pH 7.2 and Room Temperature
A suspension of the compounds in the specified solvent was treated for 5 min in an ultrasonic bath, undissolved components were removed by centrifugation, and the concentration in the solution was determined using HPLC. The following saturation concentrations were determined: […]

For `COc1ccc2c(COP3(=O)OCC4OC(n5cnc6c(N)ncnc65)C(O)C4O3)cc(=O)oc2c1` (single isomer, unassigned) [equatorial isomer of the (7-methoxycoumarin-4-yl)methyl ester of cAMP, (7-methoxycoumarin-4-yl)methyl ester of cAMP], in data set [1] (Ringer's solution), the hydrolytic halflife is 60 h.
Turning to `COc1ccc2c(COP3(=O)OCC4OC(n5cnc6c(=O)[nH]c(N)nc65)C(O)C4O3)cc(=O)oc2c1` (stereo not drawn) [7-methoxycoumarinylmethyl-caged cGMP], the “activation of the olfactory cGMP-dependent cation channel upon photolysis” value in data set [2] was “not more than partially”.
For the compound `Nc1ncnc2c1ncn2C1OC2COP(=O)(OCc3ccc4c(c3)C(=O)c3ccccc3C4=O)OC2C1O` (stereo not drawn) [(anthraquinon-2-yl)methyl ester of cAMP], the “solubility in aqueous buffer solutions” value in data set [3] is given as “insufficient solubility”.
Take `Nc1ncnc2c1ncn2C1OC2COP(=O)(OCc3ccc4ccccc4c3)OC2C1O` (stereo not drawn) [(naphth-2-yl)methyl ester of cAMP]: the “solubility in aqueous buffer solutions” value in data set [3] is on record as “insufficient solubility”.
With `Nc1nc2c(ncn2C2OC3COP(=O)(OCc4cc(=O)oc5cc(OCC(=O)O)c(OCC(=O)O)cc45)OC3C2O)c(=O)[nH]1` (stereo not drawn) [Compound 10, [6,7-bis(carboxymethoxy)coumarin-4-yl]methyl ester of cGMP], the “amount of incident light for comparable activation of the channel” value in data set [2] (333 nm, compared to the 4,5-dimethoxy-2-nitro-benzyl ester of cGMP) is “substantially smaller amounts of incident light”.
For `Nc1ncnc2c1ncn2C1OC2COP(=O)(OCc3cc(=O)oc4cc(OCC(=O)O)c(OCC(=O)O)cc34)OC2C1O` (stereo not drawn) [Example 1, [6,7-Bis(carboxymethoxy)coumarin-4-yl]methyl ester of cAMP], the “concentration of liberated cyclic nucleotide” value in data set [4] was “substantially higher concentrations of liberated cyclic nucleotide”.
With `Nc1nc2c(ncn2C2OC3COP(=O)(OCc4cc(=O)oc5cc(OCC(=O)O)ccc45)OC3C2O)c(=O)[nH]1` (stereo not drawn) [Example 3], the “activation of the olfactory cGMP-dependent cation channel upon photolysis” value in data set [2] is “complete activation”.
Regarding `Nc1nc2c(ncn2C2OC3COP(=O)(OCc4cc(=O)oc5cc(OCC(=O)O)c(OCC(=O)O)cc45)OC3C2O)c(=O)[nH]1` (stereo not drawn) [[6,7-Bis(carboxymethoxy)coumarin-4-yl]methyl-caged cGMP (equ], the saturation concentration in data set [5] is > 100 µM.
Same read-out and setting: then `Nc1ncnc2c1ncn2C1OC2COP(=O)(OCc3cc(=O)oc4cc(OCC(=O)O)ccc34)OC2C1O` (stereo not drawn) [[7-(Carboxymethoxy)coumarin-4-yl]methyl-caged cAMP (axial)], with 900 µM.
With `Nc1ncnc2c1ncn2C1OC2COP(=O)(OC(C(=O)c3ccccc3)c3ccccc3)OC2C1O` (stereo not drawn) [desyl ester of cAMP], in data set [1] (aqueous buffer solutions), the sensitivity to solvolysis result is on record as “sensitive to solvolysis”.
As for “(7-Methoxycoumarin-4-yl)methyl-caged 8-Br-cGMP [(7-Methoxycoumarin-4-yl)methyl-caged 8-Br-cGMP (axial)]”, the saturation concentration in data set [5] came out at 40 µM.
Same read-out and setting: as for “(7-Methoxycoumarin-4-yl)methyl-caged 8-Br-cGMP [(7-Methoxycoumarin-4-yl)methyl-caged 8-Br-cGMP (equatorial)]”, the figure is 20 µM; as for “(7-Methoxycoumarin-4-yl)methyl-caged cAMP”, 15 µM.
Same read-out and setting: then “(7-Methoxycoumarin-4-yl)methyl-caged cGMP [(7-Methoxycoumarin-4-yl)methyl-caged cGMP (axial)]”, with 15 µM; and “(7-Methoxycoumarin-4-yl)methyl-caged cGMP [(7-Methoxycoumarin-4-yl)methyl-caged cGMP (equatorial)]”, with 25 µM.
